Tests used:
Format in all cases: cell-based
WT-CFTR = target: T1, WT-CFTR (Homo sapiens, UniProt P13569); assay: Halide-sensitive YFP microplate reader assay of CFTR potentiation, WT-CFTR; settings: FRT cells, 0.1 μM forskolin
T1 construct: expressed in transfected cells; host or cells: Fisher rat thyroid (FRT) cells, co-expressing halide sensor YFP-H148Q/I152L; provided by Dr. Alan Verkman
Description: (§1) FRT cells expressing wild type- or ΔF508-CFTR with the halide sensor YFP-H148Q/I152L were plated in 96-well black-walled microplates (Corning Inc., Corning, NY) at a density of 2 x10^4cells per well. FRT-WT-CFTR-YFP cells were incubated for 48 h at 37°C, and FRT-ΔF508-CFTR-YFP cells were incubated for 24 h at 27°C after 24 h incubation at 37°C to rescue ΔF508-CFTR localization. Assays were done using FLUO star Omega microplate reader (BMG Labtech, Ortenberg, Germany) and MARS Data Analysis Software (BMG Labtech). Each well of a 96-well plate was washed 3 times in PBS (200 μL/wash). 100 μL PBS was added to each well. Forskolin (0.1 and 10 μM for WT- and ΔF508-CFTR, respectively) and test compounds (1 μL) were added to each well. After 10 min, 96-well plates were transferred to the microplate reader preheated to 37°C for fluorescence assay. Each well was assayed individually for CFTR-mediated I^- influx by recording fluorescence continuously (200 ms per point) for 2 s (baseline), then 100 μL of 140 mM I^- solution was added at 2 s and then YFP fluorescence was recorded for 14 s. Initial iodide influx rate was determined from the initial slope of fluorescence decrease, by nonlinear regression, following infusion of iodide.

G551D-CFTR = target: T2, G551D-CFTR (Homo sapiens, UniProt P13569, G551D); assay: Apical membrane current (Ussing chamber) in FRT cells expressing G551D-CFTR
T2 construct: expressed in transfected cells; host or cells: Fisher rat thyroid (FRT) cells; provided by Dr. Alan Verkman
Description: Snapwell inserts containing CFTR-expressing FRT and primary culture of human nasal epithelial cells were mounted in Ussing chambers (Physiologic Instruments, San Diego, CA). […] For FRT cells, the apical bath was filled with a half-Cl^- solution and the basolateral bath was filled with HCO3^—buffered solution, and the basolateral membrane was permeabilized with 250 μg/mL amphotericin B. For primary cultures of human nasal epithelial cells, symmetrical HCO3^—buffered solutions were used and ENaC was inhibited by pre-treatment with amiloride (100 μM). […] Apical membrane current and short-circuit current were measured with an EVC4000 Multi-Channel V/I Clamp (World Precision Instruments, Sarasota, FL) and recorded using PowerLab 4/35 (AD Instruments, Castle Hill, Australia). Data were collected and analyzed with ADInstruments acquisition software Labchart Pro 7 software. The sampling rate was 4 Hz.

ΔF508-CFTR [1] = target: T3, ΔF508-CFTR (Homo sapiens, UniProt P13569, DEL508-508); assay: Immunoblot of ΔF508-CFTR band C/B in A549-ΔF508-CFTR cells; set-up: expressed in transfected cells; settings: 48 h, combined with 5 μM VX-809, 10 μM CP7q, vs VX-809 alone
Description: A549 cells stably expressing ΔF508-CFTR were lysed with cell lysis buffer (50 mM Tris-HCl, pH 7.4, 1% Nonidet P-40, 0.25% sodium deoxycholate, 150 mM NaCl, 1 mM EDTA, 1 mM Na3VO4, and protease inhibitor mixture). Whole cell lysates were centrifuged at 15,000 g for 10 min at 4°C to remove the cell debris, and equal amounts (80 μg protein/lane) of supernatant protein were separated by 4–12% Tris-glycine precast gel (KOMA BIOTECH, Seoul, Korea) and then transferred onto PVDF membrane (Millipore, Billerica, MA). Membrane was blocked with 5% non-fat skim milk in PBS including 0.05% Tween 20 for 1 hour at room temperature. This membrane was then incubated overnight with primary CFTR antibody (M3A7, Millipore, Billerica, MA). After washing with 0.05% Tween 20 in PBS (PBST), the blot was further incubated for 45 min at room temperature with an anti-mouse secondary antibody (Cell Signaling). The membrane was then washed three times with PBST for 5 minutes and then visualized using the ECL Plus western blotting detection system (GE Healthcare Amersham; Piscataway, NJ). The immunoblot results were analyzed quantitatively by ImageJ Software.

ΔF508-CFTR [2] = target: T3, ΔF508-CFTR; assay: Halide-sensitive YFP microplate reader assay of CFTR potentiation, ΔF508-CFTR; set-up: expressed in transfected cells; host or cells: Fisher rat thyroid (FRT) cells, co-expressing halide sensor YFP-H148Q/I152L; provided by Dr. Alan Verkman; settings: FRT cells rescued at 27°C, 10 μM forskolin
Description: as §1

ΔF508-CFTR [3] = target: T3, ΔF508-CFTR; assay: YFP quenching assay of VX-809-mediated rescue in A549 cells expressing ΔF508-CFTR; set-up: expressed in transfected cells; host or cells: Fisher rat thyroid (FRT) cells, co-expressing halide sensor YFP-H148Q/I152L; provided by Dr. Alan Verkman; settings: 48 h, combined with 5 μM VX-809, 10 μM CP7q or 5 μM VX-770, vs VX-809 alone
Description: Fisher rat thyroid (FRT) cells expressing human wild type-, ΔF508- and G551D-CFTR with a halide sensor YFP-H148Q/I152L were generously provided by Dr. Alan Verkman (University of California, San Francisco) and grown in F-12 Modified Coon´s medium supplemented with 10% FBS, 2 mM glutamine, 100 units/ml penicillin and 100 μg/ml streptomycin [30]. A549 cells were obtained from Korean Cell Line Bank (Seoul, Korea) and the cells were stably transfected with human ΔF508-CFTR and the halide sensor YFP-H148Q/I152L/F46L, and maintained in RPMI-1640 medium containing 10% fetal bovine serum (FBS), 100 units/ml penicillin and 100 μg/ml streptomycin. […]
FRT cells expressing wild type- or ΔF508-CFTR with the halide sensor YFP-H148Q/I152L were plated in 96-well black-walled microplates (Corning Inc., Corning, NY) at a density of 2 x10^4cells per well. […] Assays were done using FLUO star Omega microplate reader (BMG Labtech, Ortenberg, Germany) and MARS Data Analysis Software (BMG Labtech). […] After 10 min, 96-well plates were transferred to the microplate reader preheated to 37°C for fluorescence assay. Each well was assayed individually for CFTR-mediated I^- influx by recording fluorescence continuously (200 ms per point) for 2 s (baseline), then 100 μL of 140 mM I^- solution was added at 2 s and then YFP fluorescence was recorded for 14 s. […]

T2 sequence (P13569 whole entry G551D): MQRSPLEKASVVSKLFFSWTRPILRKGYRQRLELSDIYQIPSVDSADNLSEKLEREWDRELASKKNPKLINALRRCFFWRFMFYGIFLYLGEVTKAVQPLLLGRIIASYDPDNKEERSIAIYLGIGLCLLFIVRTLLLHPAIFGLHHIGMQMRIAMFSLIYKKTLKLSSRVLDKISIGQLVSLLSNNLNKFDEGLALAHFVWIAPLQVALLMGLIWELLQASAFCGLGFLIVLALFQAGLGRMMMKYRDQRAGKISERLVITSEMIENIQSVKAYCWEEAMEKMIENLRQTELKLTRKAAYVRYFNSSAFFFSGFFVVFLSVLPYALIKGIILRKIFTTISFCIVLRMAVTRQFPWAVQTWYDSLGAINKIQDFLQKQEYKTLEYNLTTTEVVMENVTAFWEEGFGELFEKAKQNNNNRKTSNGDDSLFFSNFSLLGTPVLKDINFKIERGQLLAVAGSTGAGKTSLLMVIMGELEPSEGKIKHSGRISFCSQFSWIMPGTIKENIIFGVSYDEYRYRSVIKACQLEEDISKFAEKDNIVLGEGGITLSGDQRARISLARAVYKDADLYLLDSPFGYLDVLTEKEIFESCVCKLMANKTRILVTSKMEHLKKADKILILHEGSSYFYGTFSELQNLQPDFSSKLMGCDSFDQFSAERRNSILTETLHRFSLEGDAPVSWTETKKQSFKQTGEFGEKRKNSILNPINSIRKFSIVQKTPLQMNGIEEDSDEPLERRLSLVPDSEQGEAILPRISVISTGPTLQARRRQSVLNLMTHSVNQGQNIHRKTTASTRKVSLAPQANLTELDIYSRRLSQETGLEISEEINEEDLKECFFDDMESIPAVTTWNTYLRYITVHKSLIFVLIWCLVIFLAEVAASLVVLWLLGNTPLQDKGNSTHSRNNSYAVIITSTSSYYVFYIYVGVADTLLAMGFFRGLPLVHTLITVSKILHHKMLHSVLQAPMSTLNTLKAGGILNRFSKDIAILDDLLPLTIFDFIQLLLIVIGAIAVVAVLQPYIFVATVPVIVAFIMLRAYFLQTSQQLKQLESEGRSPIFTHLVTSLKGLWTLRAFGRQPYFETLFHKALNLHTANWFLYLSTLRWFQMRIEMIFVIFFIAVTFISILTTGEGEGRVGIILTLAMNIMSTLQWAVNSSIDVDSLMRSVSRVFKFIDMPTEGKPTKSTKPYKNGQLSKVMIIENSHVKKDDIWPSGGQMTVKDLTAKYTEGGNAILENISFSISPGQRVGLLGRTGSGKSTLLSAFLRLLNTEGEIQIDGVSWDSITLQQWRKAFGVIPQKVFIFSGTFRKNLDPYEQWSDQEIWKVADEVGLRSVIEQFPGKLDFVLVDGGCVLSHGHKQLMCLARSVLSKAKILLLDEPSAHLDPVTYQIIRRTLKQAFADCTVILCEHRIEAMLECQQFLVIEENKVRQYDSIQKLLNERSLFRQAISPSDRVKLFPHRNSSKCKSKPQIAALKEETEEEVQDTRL
T3 sequence (P13569 with tags, fused parts or gaps DEL508-508): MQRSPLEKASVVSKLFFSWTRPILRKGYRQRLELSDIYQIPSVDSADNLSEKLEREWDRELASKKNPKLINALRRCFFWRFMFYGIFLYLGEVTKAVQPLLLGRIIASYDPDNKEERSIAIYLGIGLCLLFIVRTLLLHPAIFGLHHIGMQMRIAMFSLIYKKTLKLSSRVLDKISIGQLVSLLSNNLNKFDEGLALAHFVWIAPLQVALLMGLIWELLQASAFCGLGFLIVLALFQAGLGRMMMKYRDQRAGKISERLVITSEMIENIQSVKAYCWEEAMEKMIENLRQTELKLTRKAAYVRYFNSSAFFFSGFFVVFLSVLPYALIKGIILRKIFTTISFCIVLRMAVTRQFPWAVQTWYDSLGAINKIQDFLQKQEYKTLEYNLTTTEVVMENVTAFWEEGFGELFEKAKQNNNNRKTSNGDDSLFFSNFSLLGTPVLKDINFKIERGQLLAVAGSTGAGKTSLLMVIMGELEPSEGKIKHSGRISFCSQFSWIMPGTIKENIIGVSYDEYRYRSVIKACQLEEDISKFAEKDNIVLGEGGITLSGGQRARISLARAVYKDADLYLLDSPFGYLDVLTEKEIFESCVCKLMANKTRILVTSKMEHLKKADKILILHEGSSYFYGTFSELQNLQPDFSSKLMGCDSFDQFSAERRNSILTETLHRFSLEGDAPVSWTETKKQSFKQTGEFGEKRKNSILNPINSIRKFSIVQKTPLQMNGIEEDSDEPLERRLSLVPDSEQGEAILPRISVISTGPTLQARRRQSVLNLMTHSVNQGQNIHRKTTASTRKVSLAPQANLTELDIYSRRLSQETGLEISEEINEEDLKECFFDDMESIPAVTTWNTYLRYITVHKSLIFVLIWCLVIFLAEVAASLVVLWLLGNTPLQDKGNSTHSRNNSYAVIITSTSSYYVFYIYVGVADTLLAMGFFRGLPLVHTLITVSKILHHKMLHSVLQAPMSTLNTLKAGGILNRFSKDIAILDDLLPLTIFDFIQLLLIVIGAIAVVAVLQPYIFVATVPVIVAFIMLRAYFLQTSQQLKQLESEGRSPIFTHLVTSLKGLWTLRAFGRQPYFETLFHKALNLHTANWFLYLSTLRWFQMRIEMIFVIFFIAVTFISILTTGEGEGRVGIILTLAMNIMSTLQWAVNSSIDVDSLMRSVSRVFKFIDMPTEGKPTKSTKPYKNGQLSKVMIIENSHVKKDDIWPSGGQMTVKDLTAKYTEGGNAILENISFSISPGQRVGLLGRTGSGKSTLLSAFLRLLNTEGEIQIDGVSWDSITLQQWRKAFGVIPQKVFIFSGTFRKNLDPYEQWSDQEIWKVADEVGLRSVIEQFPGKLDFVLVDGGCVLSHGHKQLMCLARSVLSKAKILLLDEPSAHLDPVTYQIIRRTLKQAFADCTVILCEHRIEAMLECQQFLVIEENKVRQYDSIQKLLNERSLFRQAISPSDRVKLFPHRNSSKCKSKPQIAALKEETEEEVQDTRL

## COc1ccc(C2CC(c3ccc(O)cc3O)=NN2c2ccc(S(N)(=O)=O)cc2)c(OC)c1 (centres unmarked) [Compound 7q, 4-[3-(2,4-dihydroxyphenyl)-5-(2,4-dimethoxyphenyl)-4,5-dihydro-1H-pyrazol-1-yl] benzenesulfonamide]
WT-CFTR
  EC50: 0.9 µM
G551D-CFTR; 20 μM forskolin, 30 μM CP7q vs 10 μM VX-770
  Potentiation of G551D-CFTR Cl- current compared with VX-770: comparable to VX-770
G551D-CFTR; 20 μM forskolin, 30 μM CP7q vs 50 μM genistein
  Potentiation of G551D-CFTR Cl- current relative to genistein: 1.9 times
G551D-CFTR; 20 μM forskolin, 50 μM genistein, 10 μM VX-770, CP7q
  Potentiation of G551D-CFTR Cl- current: significantly potentiated
G551D-CFTR; higher than genistein
  Maximal potentiation of G551D-CFTR chloride conductance relative to genistein: 1.9 fold
ΔF508-CFTR [1]
  Effect on ratio of band C to band B of ΔF508-CFTR: strongly increased
ΔF508-CFTR [2]
  EC50: 4.8 µM
ΔF508-CFTR [3]
  Effect on functional rescue of ΔF508-CFTR by VX-809 (iodide influx): significantly increased

Reference: PMC4749168, “Potentiation of ΔF508- and G551D-CFTR-Mediated Cl^- Current by Novel Hydroxypyrazolines” (PLoS ONE, 2016)
